Data from paper PMC8700061, “Fragment-Sized and Bidentate (Immuno)Proteasome Inhibitors Derived from Cysteine and Threonine Targeting Warheads” (Cells, 2021).

How the values were obtained:
Format in all cases: biochemical
β2 subunit of human cCP = biological target: T1, β2 subunit of human cCP (Homo sapiens, UniProt P49720+Q99436); experiment: Residual β2 activity, Boc-LRR-AMC; settings: PA28α; for β2 (RA [%]): 10 µM; for remaining activity at 10 µM: Table 3, read-out: β2 (RA [%])
T1 construct: purchased Boston Biochem, Inc., Cambridge, MA, USA
Procedure: (§1) Residual activity measurements were performed at 10 μM final concentrations in the assay buffer (0.01% SDS, 50 mM Tris-HCl, 0.5 mM EDTA, pH 7.4). Stock solutions of the compounds were prepared in DMSO. To 50 μL of each compound in buffer, 25 μL of 0.8 nM human iCP or human cCP (both from Boston Biochem, Inc., Cambridge, MA, USA) were added. After incubation at 37 °C for 30 min, the reaction was started by adding of 25 μL of 100 μM relevant fluorogenic substrate: acetyl-Nle-Pro-Nle-Asp-AMC (Ac-nLPnLD-AMC, (Bachem, Bubendorf, Switzerland)) for β1, acetyl-Pro-Ala-Leu-7-amino-4-methylcoumarin (Ac-PAL-AMC, (Boston Biochem, Inc., Cambridge, MA, USA)) for β1i, t-butyloxycarbonyl-Leu-Arg-Arg-7-amino-4-methylcoumarin (Boc-LRR-AMC, (Bachem, Bubendorf, Switzerland)) for β2 and β2i, succinyl-Leu-Leu-Val-Tyr-7-amino-4-methylcoumarin (Suc-LLVY-AMC) (Bachem, Bubendorf, Switzerland) for β5 and β5i. Reaction progress was recorded on BioTek Synergy HT microplate reader by monitoring fluorescence at 460 nm (λex = 360 nm) for 90 min at 37 °C. The initial linear ranges were used to calculate velocity and determine residual activity. In the case of evaluation of β1, βi, β2, and β2i activities, the assay buffer was modified by replacing SDS with the proteasomal activator PA28α (Boston Biochem, Inc., Cambridge, MA, USA).

hAChE = biological target: T2, hAChE (Homo sapiens, UniProt P22303); experiment: Cholinesterase assay (Ellman), hAChE; settings: 30 min pre-incubation, read-out: Residual activity [%] ± SD, hAChE
T2 construct: gift of Xavier Brazzolotto, Florian Nachon and José Dias (IRBA, Brétigny-sur-Orge, France)
T2 sequence (P22303 32-614): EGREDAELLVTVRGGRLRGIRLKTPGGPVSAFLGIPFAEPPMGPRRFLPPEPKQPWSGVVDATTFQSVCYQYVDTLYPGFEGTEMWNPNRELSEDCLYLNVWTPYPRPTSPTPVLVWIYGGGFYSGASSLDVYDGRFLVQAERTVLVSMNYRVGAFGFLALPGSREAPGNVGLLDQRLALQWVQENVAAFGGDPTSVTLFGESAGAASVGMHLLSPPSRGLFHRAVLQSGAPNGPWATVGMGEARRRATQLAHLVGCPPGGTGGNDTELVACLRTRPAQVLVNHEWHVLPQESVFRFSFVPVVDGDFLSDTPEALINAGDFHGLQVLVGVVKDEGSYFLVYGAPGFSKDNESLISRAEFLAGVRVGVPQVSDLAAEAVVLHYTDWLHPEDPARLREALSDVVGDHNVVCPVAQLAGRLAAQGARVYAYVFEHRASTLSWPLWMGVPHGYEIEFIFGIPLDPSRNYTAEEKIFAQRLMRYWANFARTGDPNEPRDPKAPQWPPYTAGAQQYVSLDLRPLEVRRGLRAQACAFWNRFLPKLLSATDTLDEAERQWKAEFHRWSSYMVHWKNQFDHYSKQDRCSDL
Procedure: The activity of the compounds against ChEs, namely hAChE and hBChE, was determined by the Ellman method. 5,5′-Dithiobis-2-nitrobenzoic acid (Ellman’s reagent; DTNB), butyrylthiocholine iodide, and acetylthiocholine iodides were from Sigma-Aldrich. Recombinant hAChE and hBChE were kindly provided by Xavier Brazzolotto, Florian Nachon, and José Dias (IRBA, Brétigny-sur-Orge, France). Reactions were performed in a final volume of 300 µL of 0.1 M phosphate-buffered solution, pH = 8.0, containing 370 µM DTNB, 500 μM butyrylthiocholine/acetylthiocholine iodide, and approximately 1 nM or 50–100 pM hBChE or hAChE, respectively. The reactions were started by the addition of the substrate after 30-min pre-incubation at room temperature. The final organic solvent (DMSO) content was always 1%. The formation of the yellow 5-thio-2-nitrobenzoate anion was monitored for 2 min at 412 nm, using a 96-well microplate reader (Synergy HT, BioTek Instruments, Inc., Santa Clara, CA, USA). The initial velocities in the presence (vi) and absence (vo) of the test compounds were calculated. Inhibitory potencies were expressed as residual activities (RA), according to the equation RA = (vi − b)/(vo − b), where b is the blank value.

hMAO-A = biological target: T3, hMAO-A (Homo sapiens, UniProt P21397); experiment: Monoamine oxidase assay, hMAO-A; settings: 30 min pre-incubation, read-out: Residual activity [%] ± SD, hMAO-A
T3 construct: purchased Sigma Aldrich; host or cells: BTI-TN-5B1-4 insect cells
T3 sequence (P21397 1-527): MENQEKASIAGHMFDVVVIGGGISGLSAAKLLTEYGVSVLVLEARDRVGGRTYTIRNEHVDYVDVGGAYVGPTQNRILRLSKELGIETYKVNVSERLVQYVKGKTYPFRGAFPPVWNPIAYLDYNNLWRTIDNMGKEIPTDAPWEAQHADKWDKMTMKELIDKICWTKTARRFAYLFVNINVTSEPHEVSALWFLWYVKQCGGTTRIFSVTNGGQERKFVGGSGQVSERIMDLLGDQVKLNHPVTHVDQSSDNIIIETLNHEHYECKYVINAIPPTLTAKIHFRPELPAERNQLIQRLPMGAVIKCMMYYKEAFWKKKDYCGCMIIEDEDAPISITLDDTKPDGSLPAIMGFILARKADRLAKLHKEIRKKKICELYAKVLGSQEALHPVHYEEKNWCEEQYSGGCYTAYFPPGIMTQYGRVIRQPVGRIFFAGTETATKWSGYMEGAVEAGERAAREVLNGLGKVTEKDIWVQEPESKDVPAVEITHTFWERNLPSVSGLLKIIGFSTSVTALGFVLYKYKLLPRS
Procedure: The effects of the test compounds on hMAO were investigated using fluorimetric assay. Recombinant hMAO-A and hMAO-B, expressed in BTI-TN-5B1-4 insect cells, horseradish peroxidase type II and p-tyramine hydrochloride were purchased from Sigma Aldrich. Amplex Red was synthesized as previously described.
Briefly, 50 mM sodium phosphate buffer (pH = 7.4, 0.05 vol.% Triton X-114) containing the compounds or the reference inhibitors and hMAO were incubated at 37 °C for 30 min. The reaction was started by adding Amplex Red (final concentration, 250 µM), horseradish peroxidase (final activity, 1 U/mL), and p-tyramine (final concentration, 1 mM). The increase in fluorescence (λex = 530 nm, λem = 590 nm) was monitored for 30 min at 37 °C. DMSO at a concentration of 1.5% (v/v) was used for the control experiments. For the determination of blank (b), the enzyme was replaced by phosphate-buffered solution. Each measurement was performed in duplicate. Inhibitory potencies were expressed as residual activities (RA), as described under the Cholinesterase assay section.

β1 subunit of human cCP = biological target: T4, β1 subunit of human cCP (Homo sapiens, UniProt P28072+Q99436); experiment: Inhibition of β1 activity (RA, IC50), Ac-nLPnLD-AMC; settings: PA28α; for IC50: 30 min pre-incubation
T4 construct: purchased Boston Biochem, Inc., Cambridge, MA, USA
Procedure: as §1
Final assay mixtures contained 0.2 nM human iCP or 0.2 nM human cCP in assay buffer (0.01% SDS (or PA28α in cases of β1, β1i subunits), 50 mM Tris-HCl, 0.5 mM EDTA, pH 7.4). Inhibitors were dissolved in DMSO and added to the black 96-well plates for at least eight different concentrations (the final concentration of DMSO was not more than 1%). After 30 min of incubation at 37 °C, the reaction was started by adding the substrate Suc-LLVY-AMC (for β5 and β5i) or Ac-nLPnLD-AMC (for β1) or Ac-PAL-AMC (for β1i). Fluorescence was monitored at 460 nm (λex = 360 nm) for 90 min at 37 °C. The progress of the reactions was recorded and the initial linear ranges were used to calculate the velocity. IC50 values were calculated using GraphPadPrism (GraphPad Software, San Diego, CA, USA) and are means from at least three independent determinations.

Row | SMILES | β2 (RA [%]) (β2 subunit of human cCP; Table 6) | remaining activity at 100 µM (hAChE) [%] | remaining activity at 100 µM (hMAO-A) [%] | IC50 (β1 subunit of human cCP) [µM] | remaining activity at 10 µM (β2 subunit of human cCP) [%] | remaining activity at 10 µM (β1 subunit of human cCP; 10 µM, Table 3) [%] | β2 (RA [%]) (β2 subunit of human cCP; Table 3) | β1 (RA [%]) (β1 subunit of human cCP; 10 µM, Table 3) [%]
1 | CC(C)C[C@H](NC(=O)Cc1ccc2oc(C#N)nc2c1)B(O)O [Compound 40] | NA (NA, Not active (RA above 95%)) | 46 ± 1 | 36 | 3.7 ± 0.9 |  |  |  | 
2 | CC(C)C[C@H](NC(=O)CCn1c(C#N)nc2ccccc21)B1O[C@@H]2C[C@@H]3C[C@@H](C3(C)C)[C@]2(C)O1 [Compound 30] | NA (NA, Not active (RA above 95%)) | > 50 | > 50 | 0.4 |  |  |  | 
3 | N#Cc1nc2cc(O)ccc2o1 [Compound 11] |  | 27 ± 1 | 26 |  | > 90 | > 90 |  | 
4 | CC(=O)Oc1ccc2oc(C#N)nc2c1 [Compound 15] |  | 33 ± 2 | 16 |  | > 90 | > 90 |  | 
5 | N#Cc1nc2c(O)cccc2o1 [Compound 10] |  | 27 ± 2 | 38 ± 2 |  | > 90 | > 90 |  | 
6 | CC(C)C[C@H](NC(=O)CCn1c(C#N)nc2cccc(Cl)c21)B1O[C@@H]2C[C@@H]3C[C@@H](C3(C)C)[C@]2(C)O1 [Compound 38] | NA (NA, Not active (RA above 95%)) | > 50 | 24 ± 1 | 5 ± 0.1 |  |  |  | 
7 | CC(C)C[C@H](NC(=O)CCCn1c(C#N)nc2ccccc21)B(O)O [Compound 35] | NA (NA, Not active (RA above 95%)) | > 50 | > 50 | 13 ± 2 |  |  |  | 
8 | CC(=O)Oc1cccc2oc(C#N)nc12 [Compound 14] |  | 11 ± 2 | 34 |  | > 90 | > 90 |  | 
9 | N#Cc1nc2cccc(O)c2o1 [Compound 13] |  | 25 ± 1 | 48 ± 1 |  | 71 | 76 |  | 
10 | COc1cccc2oc(C#N)nc12 [Compound 6] |  | > 50 | 27 |  |  |  | NA (NA, Not active (RA above 90%)) | 82
11 | CC(C)C[C@H](NC(=O)CCCn1c(C#N)nc2ccccc21)B1O[C@@H]2C[C@@H]3C[C@@H](C3(C)C)[C@]2(C)O1 [Compound 31] | NA (NA, Not active (RA above 95%)) | > 50 | 24 | 8.4 ± 1.6 |  |  |  | 
12 | C=Cc1nc(CC(=O)N[C@@H](CC(C)C)B2O[C@@H]3C[C@@H]4C[C@@H](C4(C)C)[C@]3(C)O2)cs1 [Compound 28] | NA (NA, Not active (RA above 95%)) | > 50 | 42 | 4.8 ± 0.2 |  |  |  | 
13 | CC(C)C[C@H](NC(=O)CCn1c(C#N)nc2ccccc21)B(O)O [Compound 34] | NA (NA, Not active (RA above 95%)) | > 50 | > 50 | 3.2 ± 0.2 |  |  |  | 
14 | CC(C)C[C@H](NC(=O)Cc1ccc2oc(C#N)nc2c1)B1O[C@@H]2C[C@@H]3C[C@@H](C3(C)C)[C@]2(C)O1 [Compound 39] | NA (NA, Not active (RA above 95%)) | > 50 | 42 | 2.9 ± 0.4 |  |  |  | 
